Experimental data reported in the NIST ThermoML archive (doi:10.1021/acs.jced.8b00966).
± gives the expanded uncertainty stated by the source. One block for each compound: values may come before it.

Details: Liquid, Ebulliometric method (Recirculating still)

vapor or sublimation pressure (373.35 K): 101.3 ± 3 kPa
SMILES: CC1CCCCC1 [methylcyclohexane]

vapor or sublimation pressure (352.8 K): 101.3 ± 3 kPa
SMILES: CC1(C)COC1 [3,3-dimethyloxetane]

vapor or sublimation pressure (439.15 K): 101.3 ± 3 kPa
SMILES: CC(C)(CO)CCl [3-chloro-2,2-dimethyl-1-propanol]
